Earlier results in patent US8367683B2, “Composition and method for treatment of warts” (Medcara, L.L.C., priority 2005, dated 2013).

System: warts
Conditions: even with patient compliance; applied several times a day over weeks to months

O=C(O)c1ccccc1O [salicylic acid]
share of users who experience success: less than half
